How the values were obtained:
[1] = system: primary rat cortical neurons; experiment: H2O2 injury, neuronal viability 24 h (CellTiter-Blue); settings: 40 μM H2O2
caspase3/7 = experiment: Stretch injury induced caspase3/7 activity; format: cell-based, rat; settings: 75 μM pre-treated 30 minutes; 24 hours after injury
Protocol: Rat cortical neurons are isolated from E16 embryos, and plated on silicone membranes (with defined elastic properties) held in a custom made stainless steel chamber. DIV 7-9 neurons are subjected to a (computer controlled) preset stretch injury; strain rate 10 s^−1 and 50% membrane deformation. AQ2S or DMSO (vehicle control) was added before (pre-treatment) or after post-treatment) injury, Cell death was assayed ˜24 hours after injury by measuring 1) extracellular LDH in the culture media (released from dying/dead cells), 2) caspase-3/7 activation (a protease involved in execution of cell death), and 3) MTT metabolism (a reagent metabolized by living cells).
Caspase activation plays a role in cell death after TBI. Primary rat cortical neurons were grown on a custom made stretch-injury device (An in vitro model of TBI). Neurons were pre-treated with 75 μM AQ2S or vehicle only (DMSO control) for 30 minutes, and subjected to a defined stretch injury. 24 hours after injury caspase3/7 activity was measured. […] (C) In a third experiment, AQ2S was administered 30 minutes before (pre-treatment) or 30 minutes after (post-treatment) stretch-TBI (FIG. 19C) (Experiment 3, n=3/treatment). Data was analyzed using ANOVA and Fisher LSD post-hoc test. Data is significant at (*) p<0.05. Graphs show Mean+SEM.

[2] = system: Human derived myocardial heart cells; experiment: STS injury in human heart cells, viability (CellTiter Blue); format: cell-based; settings: 24 hour co-treatment; 500 nM or 1 μM STS, 125 μM AQ2S
Protocol: Human derived myocardial heart cells were seeded onto 96-well plates. 24 hours later cells were injured with STS.
Optimal cell death conditions were established in heart cells. Heart cells were treated with STS at increasing doses for 24 hours (FIG. 28A). […] Heart cells were treated with 500 nM STS+/−125 μM AQ2S or 1 μM STS+/−125 μM AQ2S for 24 hours. Cell viability was measured 24 hours later and expressed as relative fluorescent units (RFU). […] Data were analyzed by ANOVA (p<0.0001); Fisher LSD post-hoc test. * indicates p<0.05. Graphs show Mean+SEM.

[3] = system: primary rat neurons, astrocytes, and cerebral endothelial cells; settings: cited from earlier work
caspase-3 = experiment: STS-induced caspase-3 (3/7) activity in neurons; format: cell-based, rat
Protocol: The Caspase3/7-GLO assay uses the exact same reagents as the CellTiter-GLO assay accept for the addition of a luciferin substrate crosslinked to an amino acid caspase cleavage target. Activation of caspases frees luciferin. Luciferin can then be oxidized by luciferase, thereby initiating a light reaction. Luminescence was measured using a luminometer.

O=C1c2ccccc2C(=O)c2cc(S(=O)(=O)O)ccc21 [AQ2S, anthraquinone-2-sulfonic acid]
neuronal death after H2O2 injury ([1]; post-treatment 50 μM, 24 h): significantly reduced H2O2 induced cell death
neuronal death after H2O2 injury ([1]; post-treatment 75 μM, 24 h after injury): potently prevented cell death
stretch injury induced caspase3/7 activity (caspase3/7): significantly reduced caspase activation
heart cell viability after STS [2]: increased viability
superoxide anion (O2^−) levels ([3]; 980 μM, over 60 minute): significantly upregulated superoxide anion (O2^−) levels
toxicity ([3]; 980 μM): lack of toxicity
cell viability ([3]; 5000 μM): 50%
caspase-3 activity (caspase-3; 150 nM STS 24 hours, co-treatment 75 μM): significantly reduced baseline and injury activity levels
STS-induced caspase-3 activation (caspase-3; 250 nM STS 24 hours): completely blocked STS-induced caspase-3 activation
potency among caspase-3, -8 and -9 (caspase-3; 75 μM): greatest potency against caspase-3
